Results reported in EP0352000A2, “Retroviral protease binding peptides” (SMITHKLINE BECKMAN CORPORATION, priority 1988, dated 1990).
Where a SMILES comes first, the peptide text is derived from it. [ ]: non-standard residue; d: D form. The star is where a group is joined. Sta = CC(C)C[C@H](N)[C@@H](O)CC(=O)O; Isovaleryl = CC(C)CC(=O)*

What was measured:
[1] = molecular target: retroviral proteases associated with Moloney murine leukemia virus (Moloney murine leukemia virus, UniProt P03355); conditions: cited from earlier work
[2] = molecular target: retroviral proteases associated with human T-cell leukemia virus (Human T-cell leukemia virus 1, UniProt P10274); conditions: cited from earlier work
[3] = tested on: retroviral proteases associated with bovine leukemia virus; conditions: cited from earlier work
HIV protease = conditions: substrate of HIV protease; MENDT buffer pH 6.0, 37°C
Procedure: The enzyme used to assay the peptide of this invention was produced in this manner and purified from the cell pellet as follows. The E. coli cell pellet was resuspended in a buffer consisting of 50 mM Tris-­HCl, pH 7.5; 1.0 mM each DTT, EDTA and PMSF (phenylmethylsulfonyl fluoride). The cells were lysed by sonication and insoluble material was removed by centrifugation at 15,000 x g av, for 15 min. The clarified supernatant was then brought to 40% of saturation with ammonium sulfate This suspension was stirred at room temperature for 30 min. and then centrifuged as above. […] The effluent of the column was monitored at 280 nm and 1 min. fractions collected.
Initial rate data for oligopeptides were determined at pH 6.0, 37°C. […] Samples were centrifuged at 17,000 rpm for 5 min., and the peptide substrates and products were separated and quantified (by peak integration) by reverse phase HPLC. Initial rates were determined as (mM peptide product formed)/min based on the percentage of conversion of substrate to product for a given concentration of substrate. […] Kinetic constants (Michaelis constants, maximal velocities) were determined by fitting initial rate data to the Michaelis-Menten equation (v = Vmax(S)/(Km + (S))) using the Fortran program of Cleland (W. W. Cleland, Adv. Enzymol. 29, 1, (1967)). […]

retroviral proteases associated with human T-cell leukemia virus, sequence (P10274 450-574): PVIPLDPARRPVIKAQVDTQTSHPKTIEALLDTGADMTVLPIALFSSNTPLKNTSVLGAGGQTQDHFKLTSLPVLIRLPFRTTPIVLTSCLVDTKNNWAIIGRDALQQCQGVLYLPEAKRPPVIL
retroviral proteases associated with Moloney murine leukemia virus, sequence (P03355 535-659): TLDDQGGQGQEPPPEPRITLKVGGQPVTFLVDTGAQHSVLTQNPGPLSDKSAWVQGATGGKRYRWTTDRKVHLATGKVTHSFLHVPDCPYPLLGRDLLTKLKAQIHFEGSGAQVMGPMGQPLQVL

Compound | inhibitor of the retroviral protease [1] | inhibitor of the retroviral protease [2] | inhibitor of the retroviral protease [3] | Km (HIV protease)
CC(C)CC(=O)N[C@H](C(=O)N[C@H](C(=O)N[C@@H](CC(C)C)[C@@H](O)CC(=O)N[C@@H](C)C(=O)N[C@@H](CC(C)C)[C@@H](O)CC(=O)O)C(C)C)C(C)C [pepstatin] (Isovaleryl-VV[Sta]A[Sta]-OH) | weak inhibitor | weak inhibitor | weak inhibitor | 
N-acetyl-L-arginyl-L-alanyl-L-seryl-L-glutaminyl-L-asparaginyl-L-tyrosyl-L-prolyl-L-valyl-L-valinamide |  |  |  | 7 mM
